US5589506A, “Stilbene derivative and stilbene analog derivative, and use thereof” (Morinaga Milk Industry Co., Ltd., priority 1993, dated 1996)
Entries after “also recorded” stand apart in the source; their conditions may differ.

What was measured:
12-lipoxygenase = details: background; cited from earlier work
[1] = Deacylation by esterases present in the enzyme solution prepared from rat platelets; format: in vitro ADME; details: platelet enzyme solution, 37° C., read-out: conversion (%) from Formula 34b or Formula 35b to Formula 32b; for metabolised at 0.5 h, 10 µM: Reaction time 30 min.; for metabolised at 1 h, 10 µM: Reaction time 60 min.
Protocol: The test was performed to examine whether or not deacylated compounds would be formed due to esterases present in the enzyme solution when the compounds in the third embodiment according to the present invention were treated with the same enzyme solution as in Test Example 4.
The enzyme solution was prepared according to the same procedure as described in Test Example 4.
(§1) One ml of the above mentioned enzyme solution was diluted with 11 ml of a resuspension buffer. To an aliquot (300 μl) of this enzyme solution was added 3 μl of a 1.0×10^-3 M test compound solution in dimethyl sulfoxide. The mixture was incubated at 37° C. for an indicated time, then the reaction was ceased by the addition of 1 ml of acetonitrile. Twenty μl of the above mixture was subjected to reverse phase high-performance liquid chromatography equipped with a C-18 column to quantify the amount of deacylated products. As a control, a test using 300 μl of the resuspension buffer solution mentioned above instead of the enzyme solution was also performed.
Conditions of reverse phase high-performance liquid chromatography:
Column: Superspher RP-18(e) (purchased from Merck), 4.0 mm in diameter, 125 mm in length
Flow velocity: 1.0 ml/minute
Eluent: Acetonitrile containing 50 mM NaClO4 and 50 mM orthophosphate-water (55: 45)
Column temperature: 30° C.
Calibration: Absorbance of 280 nm

[2] = Deacylation control test in resuspension buffer instead of enzyme solution; format: in vitro ADME; details: resuspension buffer instead of the enzyme solution
Protocol: as §1

metabolised at 0.5 h, 10 µM [1] [%] | metabolised at 1 h, 10 µM [1] [%] | Compound | 12-lipoxygenase inhibitory effect (literature, in words) (12-lipoxygenase) | formation of deacylated compound (Formula 32b) [2]
– | – | O=c1cc(-c2ccccc2)oc2cc(O)c(O)c(O)c12 [Baicalein, baicalein] | having an inhibitory effect to 12-lipoxygenase; also recorded: relatively high 12-lipoxgenaseinhibitory activities and a relatively high selectivity | –
70.9 | 82.8 | CC(=O)Oc1ccc(C=C(C#N)c2ccc(Cl)cc2)cc1OC(C)=O [Formula 34b] | – | no deacylated compound (Formula 32b) was formed
56.5 | 64.6 | CCC(=O)Oc1ccc(C=C(C#N)c2ccc(Cl)cc2)cc1OC(=O)CC [Formula 35b] | – | no deacylated compound (Formula 32b) was formed
